In brackets after ≈: the same amount, converted by molar mass. Blank lines part the entries; values can stand above or below the compound they belong to.
Experiments:
[1] = Measurement of solubility in isotonic buffer (Experimental Examples 7 and 8)
Procedure: (§4) To prepare a test solution, about 1 mg of a test product was measured and the isotonic buffer (0.5 mL) was added thereto. The prepared solution was shaken at room temperature for 90 min (shaking conditions: RECIPRO SHAKER SR-1N manufactured by TAITEC, Speed=8), centrifuged (15000 rpm, 5 min, room temperature), and the supernatant after centrifugation was used as a test solution.
(§5) About 1 mg of the test product was accurately measured, dissolved in 0.1% TFA water/acetonitrile=1/1, made the total amount 10 mL, and this was used as a standard solution of the test product.
(§6) The standard solution of the test product and the test solution are analyzed by HPLC (under the analysis conditions described in Table 34), and the solubility of the test product is calculated from the ratio of peak area compared to the standard solution.
(§7) column: Chemcopack Quicksorb (4.6 mmφ×150 mm, 5 μm)
(§8) manufactured by Chemco Scientific Co., Ltd.
(§9) mobile phase: SOLUTION A; 0.1% TFA water, SOLUTION B;
0.1% TFA acetonitrile solution
column temperature: room temperature
(§10) detection wavelength: UV 254 nm, 230 nm (2 wavelength detection)
sample injection volume: 10

ERAP1 [2] = target: T1, ERAP1 (Homo sapiens, UniProt Q9NZ08); assay: Test of trimming of N-terminal amino acid by ERAP1 (Experimental Example 9, Examples 69-84); type: biochemical; settings: MAGE-A10 254-262 peptide obtained by ERAP1 trimming; from HPLC AUC;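 also: peptide incubated with ERAP1 for 1 h before HPLC analysis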
T1 sequence (Q9NZ08 whole entry): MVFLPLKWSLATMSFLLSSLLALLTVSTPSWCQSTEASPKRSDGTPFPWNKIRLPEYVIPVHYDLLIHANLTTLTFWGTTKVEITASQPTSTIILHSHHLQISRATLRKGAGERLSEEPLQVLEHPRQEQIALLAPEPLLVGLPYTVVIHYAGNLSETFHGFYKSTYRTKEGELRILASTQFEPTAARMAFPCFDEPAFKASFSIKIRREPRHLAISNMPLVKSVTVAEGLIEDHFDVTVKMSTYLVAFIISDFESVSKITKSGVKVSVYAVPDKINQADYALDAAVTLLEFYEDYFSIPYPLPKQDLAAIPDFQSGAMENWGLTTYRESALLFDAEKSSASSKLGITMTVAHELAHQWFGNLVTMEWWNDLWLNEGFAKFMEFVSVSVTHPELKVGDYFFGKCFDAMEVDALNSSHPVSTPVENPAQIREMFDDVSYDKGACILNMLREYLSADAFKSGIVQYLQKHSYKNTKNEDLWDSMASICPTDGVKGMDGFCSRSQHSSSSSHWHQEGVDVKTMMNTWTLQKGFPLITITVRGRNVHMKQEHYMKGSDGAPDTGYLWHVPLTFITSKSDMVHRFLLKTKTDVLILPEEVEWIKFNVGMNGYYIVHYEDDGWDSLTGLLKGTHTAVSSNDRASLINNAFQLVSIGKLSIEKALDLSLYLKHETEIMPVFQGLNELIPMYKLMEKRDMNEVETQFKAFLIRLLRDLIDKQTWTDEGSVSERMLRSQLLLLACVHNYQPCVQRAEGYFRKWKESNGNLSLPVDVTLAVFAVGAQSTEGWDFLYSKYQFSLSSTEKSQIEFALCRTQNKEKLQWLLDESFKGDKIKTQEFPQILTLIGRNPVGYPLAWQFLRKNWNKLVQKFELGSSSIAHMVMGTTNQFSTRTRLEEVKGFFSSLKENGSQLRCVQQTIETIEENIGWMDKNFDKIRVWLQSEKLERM
Procedure: The peptides synthesized in Examples 69-84 were evaluated for N-terminal amino acid trimming efficiency using ERAP1. 50 μl of ERAP1 solution (10 μg/ml) in pH 8.0, 20 mM Tris.HCl-100 mM NaCl buffer (Tris.HCl buffer) was added to 142 μl of Tris.HCl buffer. 10 mM peptide solution in DMSO (2.0 μl) and 6.0 μL of DMSO were added to the aforementioned ERAP1 solution, and the mixture was blended well and stood at 30° C. […] The peptide obtained by trimming was chemically synthesized separately, and analyzed under similar conditions in the absence of the enzyme. […]
(§1) pump: UFLC manufactured by Shimadzu […]
(§2) solution: 0.1% TFA H2O(A)-0.1% TFA CH3CN(B) […]
(§3) detection wavelength: λ=220 nm gradient: concentration of SOLUTION B was raised from 10% to 50% from 0.0 min to 8.5 min

ERAP1 [3] = target: T1, ERAP1; assay: Test of trimming of N-terminal amino acid by ERAP1 (Experimental Example 10, Examples 85-103); type: biochemical; settings: MAGE-A10 254-262 peptide obtained by ERAP1 trimming; from HPLC AUC
Procedure: The peptides synthesized in Examples 85-103 were evaluated for N-terminal amino acid trimming efficiency using ERAP1. 50 μl of ERAP1 solution (10 μg/ml) in pH 8.0, 20 mM Tris.HCl-100 mM NaCl buffer (Tris.HCl buffer) was added to 142 μl of Tris.HCl buffer. 10 mM peptide solution in DMSO (2.0 μl) and 6.0 μL of DMSO were added to the aforementioned ERAP1 solution, and the mixture was blended well and stood at 30° C. […] The peptide to be obtained by trimming was chemically synthesized separately, and analyzed under similar conditions in the absence of the enzyme. The formation ratio of the peptide [MAGE-A10254-262 peptide ([…]) (SEQ ID NO: 19)] obtained by trimming was determined based on the obtained AUC, and is shown in Tables 45 and 46. […]
as §1, §2, §3

ERAP1 [4] = target: T1, ERAP1; assay: Time-course changes of trimming of N-terminal amino acid by ERAP1 (Experimental Example 2); type: biochemical; settings: peptide obtained by trimming (SEQ ID NO: 53, 43 or 19), ERAP1 solution 0.5 mg/ml, room temperature
Procedure: 20 μl of ERAP1 solution (0.5 mg/ml) in Tris.HCl buffer was added to 172 μl of Tris.HCl buffer. 10 mM peptide solution in DMSO (8.0 μl) was added to the aforementioned ERAP1 solution, and the mixture was blended well and stood at room temperature. […]
pump: UFLC manufactured by Shimadzu column: Shim-pack XR-ODS 3.0 mmi.d.×75 mm solution: 0.05% TFA H2O(A)-0.05% TFA CH3CN(B) […]
detection wavelength: λ=220 nm gradient: Concentration of SOLUTION B was raised from 1.0% 70% from 0.0 min to 5.0 min […]
The peptide to be obtained by the trimming of the N-terminal amino acid(s) by ERAP1 is, […]

Procedure for physchem: as §4, §5, §6, §7, §8, §9
0.1% TFA acetonitrile solution
column temperature: room temperature
as §10
sample injection volume: 10

Compound: H-VYGFVRACL-OH [SEQ ID NO: 87]
solubility thermodynamic at 90 min ([1]; pH 6): > 1000 µg/mL
solubility thermodynamic at 90 min ([1]; pH 7.4): > 1000 µg/mL

Compound: H-CSGLYDGMEHL-OH [Example 84]
formation rate of GLYDGMEHL (SEQ ID NO: 19) (ERAP1 [2]): 1.1%

Compound: H-ACGLYDGMEHL-OH [Example 92]
formation rate of GLYDGMEHL (SEQ ID NO: 19) (ERAP1 [3]): 5.2%

Compound: H-NCGLYDGMEHL-OH [Example 94]
formation rate of GLYDGMEHL (SEQ ID NO: 19) (ERAP1 [3]): 18.2%

Compound: H-CHGLYDGMEHL-OH [Example 72]
formation rate of GLYDGMEHL (SEQ ID NO: 19) (ERAP1 [2]): 0.0%

Compound: H-RCGLYDGMEHL-OH [Example 93]
formation rate of GLYDGMEHL (SEQ ID NO: 19) (ERAP1 [3]): 0.0%

Compound: H-CPGLYDGMEHL-OH [Example 76]
formation rate of GLYDGMEHL (SEQ ID NO: 19) (ERAP1 [2]): 0.0%

Compound: H-QCGLYDGMEHL-OH [Example 85]
formation rate of GLYDGMEHL (SEQ ID NO: 19) (ERAP1 [3]): 3.6%

Compound: H-SCGLYDGMEHL-OH [Example 87]
formation rate of GLYDGMEHL (SEQ ID NO: 19) (ERAP1 [3]): 22.2%

Compound: H-WCGLYDGMEHL-OH [Example 89]
formation rate of GLYDGMEHL (SEQ ID NO: 19) (ERAP1 [3]): 0.0%

Compound: CC[C@H](C)[C@H](NC(=O)[C@H](CCCCN)NC(=O)[C@@H](N)CSSC[C@H](NC(=O)[C@@H](C)NC(=O)[C@H](C)NC(=O)[C@H](C)NC(=O)[C@H](CCCCN)NC(=O)[C@H](CC(C)C)NC(=O)[C@@H](NC(=O)[C@H](Cc1c[nH]c2ccccc12)NC(=O)[C@H](C)NC(=O)[C@H](C)NC(=O)[C@@H](NC(=O)[C@H](Cc1ccccc1)NC(=O)[C@H](CCCCN)NC(=O)[C@@H](C)N)C(C)C)[C@@H](C)O)C(=O)O)C(=O)N[C@@H](Cc1ccccc1)C(=O)NCC(=O)N[C@@H](CO)C(=O)N[C@@H](CC(C)C)C(=O)N[C@@H](C)C(=O)N[C@@H](Cc1ccccc1)C(=O)N[C@@H](CC(C)C)C(=O)O [Example 113]
solubility thermodynamic at 90 min (physchem; pH 6): < 1 µg/mL
solubility thermodynamic at 90 min (physchem; pH 7.4): 2 µg/mL (≈ 0.785 µM)

Compound: H-CAGLYDGMEHL-OH [Example 26]
formation rate(%) 1 hr later (ERAP1 [4]; 1 hr): 87.8%
formation rate(%) 2 hr later (ERAP1 [4]; 2 hr): 99.4%
formation rate(%) 4 hr later (ERAP1 [4]; 4 hr): 103%
formation rate(%) 8 hr later (ERAP1 [4]; 8 hr): 97.5%

Compound: CC[C@H](C)[C@H](NC(=O)[C@H](CCCCN)NC(=O)[C@@H](N)CSSC[C@H](N)C(=O)NCC(=O)N[C@@H](CC(C)C)C(=O)N[C@@H](Cc1ccc(O)cc1)C(=O)N[C@@H](CC(=O)O)C(=O)NCC(=O)N[C@@H](CCSC)C(=O)N[C@@H](CCC(=O)O)C(=O)N[C@@H](Cc1c[nH]cn1)C(=O)N[C@@H](CC(C)C)C(=O)O)C(=O)N[C@@H](Cc1ccccc1)C(=O)NCC(=O)N[C@@H](CO)C(=O)N[C@@H](CC(C)C)C(=O)N[C@@H](C)C(=O)N[C@@H](Cc1ccccc1)C(=O)N[C@@H](CC(C)C)C(=O)O [Example 29]
solubility thermodynamic at 90 min (physchem; pH 6): 170 µg/mL (≈ 76.1 µM)
solubility thermodynamic at 90 min (physchem; pH 7.4): > 1000 µg/mL

Compound: H-CGGLYDGMEHL-OH [Example 71]
formation rate of GLYDGMEHL (SEQ ID NO: 19) (ERAP1 [2]): 0.0%

Compound: H-CFGLYDGMEHL-OH [Example 75]
formation rate of GLYDGMEHL (SEQ ID NO: 19) (ERAP1 [2]): 0.0%

Compound: H-CKGLYDGMEHL-OH [Example 74]
formation rate of GLYDGMEHL (SEQ ID NO: 19) (ERAP1 [2]): 0.0%

Compound: H-CQGLYDGMEHL-OH [Example 69]
formation rate of GLYDGMEHL (SEQ ID NO: 19) (ERAP1 [2]): 56.9%

Now from value to compound:

formation rate of GLYDGMEHL (SEQ ID NO: 19) (ERAP1 [3]): 0.0%
Compound: H-LCGLYDGMEHL-OH [Example 100]

formation rate of GLYDGMEHL (SEQ ID NO: 19) (ERAP1 [3]): 5.8%
Compound: H-MCGLYDGMEHL-OH [Example 102]

formation rate of GLYDGMEHL (SEQ ID NO: 19) (ERAP1 [3]): 2.9%
Compound: H-ECGLYDGMEHL-OH [Example 96]

solubility thermodynamic at 90 min ([1]; pH 6): > 1000 µg/mL
solubility thermodynamic at 90 min ([1]; pH 7.4): > 1000 µg/mL
Compound: H-GLYDGMEHL-OH [SEQ ID NO: 19]

solubility thermodynamic at 90 min (physchem; pH 6): 100 µg/mL (≈ 100 µM)
solubility thermodynamic at 90 min (physchem; pH 7.4): 123 µg/mL (≈ 124 µM)
Compound: CC[C@H](C)[C@H](NC(=O)[C@@H](N)CCCCN)C(=O)N[C@@H](Cc1ccccc1)C(=O)NCC(=O)N[C@@H](CO)C(=O)N[C@@H](CC(C)C)C(=O)N[C@@H](C)C(=O)N[C@@H](Cc1ccccc1)C(=O)N[C@@H](CC(C)C)C(=O)O [SEQ ID NO: 53, reference compound]

formation rate of GLYDGMEHL (SEQ ID NO: 19) (ERAP1 [3]): 0.0%
Compound: H-HCGLYDGMEHL-OH [Example 98]

formation rate of GLYDGMEHL (SEQ ID NO: 19) (ERAP1 [3]): 3.2%
Compound: H-DCGLYDGMEHL-OH [Example 95]
